{
  "source": "patent US20230293629A1",
  "about": "“METHODS FOR ATTENUATING RELEASE OF INFLAMMATORY MEDIATORS AND PEPTIDES USEFUL THEREIN” (BIOMARCK PHARMACEUTICALS LTD., priority 2006, published 2023)",
  "assay_type_in_all_cases": "cell-based",
  "key": {"[1]": {"test_system": "isolated human neutrophils", "test": "MPO secretion from isolated human neutrophils stimulated with PMA + 8-Br-cGMP (FIG. 7, 8, 9)", "conditions": "for MPO secretion: FIG. 7, 100 nM PMA and 10 μM 8-Br-cGMP"}, "[2]": {"test_system": "human neutrophils", "test": "PMA-stimulated MPO release from isolated human neutrophils (TMB assay)", "conditions": "for % Inhibition MPO: 100 μM test peptide, two hour incubation with 100 nM PMA, human neutrophils; for MPO activity relative to control as 100%: 30 min after 100 nM PMA, PMA control reference about 275%; for increase of human neutrophil MPO release versus control level: 100 nM PMA", "source_text": "Human neutrophil isolation—These studies were approved by the human studies Institutional Review Board (IRB). Human neutrophils were isolated as previously described (see Takashi S, OkuboY, Horie S. Contribution of CD54 to human eosinophil and neutrophil superoxide production. J Appl Physiol 2001; 91:613-622) with slight modifications. Briefly, heparinized venous blood was obtained from normal healthy volunteers, diluted with RPMI-1640 (Cellgro; Mediatech, Inc., Herndon, VA) at a ratio of 1:1, layered onto a Histopaque (density, 1.077 g/ml; Sigma-Aldrich Co., St. Louis, MO) and centrifuged at 400 g for 20 min at 4° C. The supernatant and mononuclear cells at the interface were carefully removed, and erythrocytes in the sediment were lysed in chilled distilled water. Isolated granulocytes were washed twice with Hanks' balanced salts solution (HBSS) and resuspended in HBSS on ice.\nMeasurement of released neutrophil MPO activity—For measurement of MPO release, purified human neutrophils suspended in HBSS were aliquoted at 4×10^6 cells/ml in 15 ml tubes and preincubated with either 50 or 100 μM of MANS, RNS, or one of the peptides of invention for 10 min at 37° C. The cells then were stimulated with 100 nM phorbol 12-myristate 13-acetate (PMA) for up to 3 hrs. A control reference (PMA control reference) was established using purified human neutrophils suspended in HBSS aliquoted at 4×10^6 cells/ml in 15 mL tubes and stimulated with 100 nM phorbol 12-myristate 13-acetate (PMA) in the absence of a test peptide for the same time periods. The reaction was terminated by placing the tubes on ice and centrifugation at 400 g for 5 min at 4° C.\nMPO activity in the cell supernatant was assayed using tetramethylbenzidine (TMB) based on a previously established technique (Abdel-Latif D, Steward M, Macdonald D L, Francis G A., Dinauer M C, Lacy P. Rac2 is critical for neutrophil primary granule exocytosis. Blood 2004; 104:832-839). Briefly, 100 μL of TMB substrate solution was added to 50 μL of cell supernatants or standard human MPO (EMD Biosciences, Inc., San Diego, CA) in a 96-well microplate followed by incubation at room temperature for 15 min. The reaction was terminated by addition of 50 μL of 1M […] and absorbance was read at 450 nm in a spectrophotometric microplate reader (VERSA max, Molecular Devices, Sunnyvale, CA).\nThe data presented in the table below represents 100 μM concentration of test peptides and a two hour incubation with 100 nM PMA."}, "[3]": {"test_system": "isolated canine neutrophils", "test": "MPO secretion from isolated canine neutrophils stimulated with PMA + 8-Br-cGMP (FIG. 6, 10, 11)", "conditions": "for MPO secretion: FIG. 6, 100 nM PMA and 10 μM 8-Br-cGMP", "source_text": "The invention also relates to a new method for blocking any cellular exocytotic secretory process, especially those releasing inflammatory mediators from granules contained within inflammatory cells, whose stimulatory pathways involve the protein kinase C (PKC) substrate MARCKS protein and release of contents from membrane-bound vesicles. Specifically, the inventors have shown that stimulated release of the inflammatory mediator myloperoxidase from human (FIG. 6) or canine (FIG. 7) neutrophils can be blocked in a concentration-dependent manner by the MANS peptide. […] 10 or 100 μM of a control peptide (RNS) has no effect on MPO secretion. In FIG. 7, isolated neutrophils were stimulated to secrete myloperoxidase (MPO) with 100 nM PMA and 10 μM 8-Br-cGMP. […] 10 or 100 μM of a control peptide (RNS) has no effect on MPO secretion. Thus, the peptide may be used therapeutically to block the release of mediators of inflammation secreted from infiltrating inflammatory cells in any tissues. Many of these released mediators are responsible for the extensive tissue damage observed in a variety of chronic inflammatory diseases (i.e., respiratory diseases such as asthma, chronic bronchitis and COPD, inflammatory bowel diseases including ulcerative colitis and Crohn's disease, autoimmune diseases, skin diseases such as rosacea, eczema; and severe acne, arthritic and pain syndromes such as rheumatoid arthritis and fibromyalgia). This invention may be useful for treating diseases such as arthritis, chronic bronchitis, COPD and cystic fibrosis. This invention is accordingly useful for the treatment in both human and animal diseases, especially those affecting equines, canines, felines, and other household pets.\nFIGS. 8-12 show MPO secretion for both humans and canines. In all of these experiments, isolated neutrophils were stimulated with LPS at a concentration of 1×10^−6 M for 10 minutes at 37° C. prior to adding the stimuli as indicated in the figures. The LPS primes the cells so they can respond to a secretagogue.\nIsolation of PMNs from canine blood—The steps involved in isolating PMN include collecting 10 ml ACD anticoagulated blood. Then layering 5 ml on 3.5 ml PMN isolation media while ensuring that the PMN isolation media (IM) was at room temperature (RI). Next, the blood was centrifuged at room temperature for 30′, 550×g at 1700 RPMs. The low lower white band was transferred into 15 ml conical centrifuge tube (CCFT). Next, 2V HESS with 10% fetal bovine serum […] was added and centrifuged at room temperature for 10′, 400×g at 1400 RPMs. The pellet was then resuspended in 5 ml 1-1ESS with PBS. The cell suspension was added to 50 ml CCFT containing 20 ml of ice cold 0.88% NH4Cl and inverted two to three times. The resulting product was centrifuged for 10′, 800×g at 2000 RPMs, then aspirated and resuspended in 5 ml HBSS with FBS. The prep was examined by counting and cytospin and preferably for whole blood, the cell number should be between 10^9-10^11 cells and for PMNs, cell number should be between 2-4×10^7 cells. See generally, Wang et al., J. Immunol., “Neutrophil-induced changes in the biomechanical properties of endothelial cells: roles of ICAM-1 and reactive oxygen species,” 6487-94 (2000).\nMPO Colorimetric Enzyme Assay—Samples were assayed for MPO activity in 96 well round bottom microtiter plates using a sandwich ELISA kit (R & D Systems, Minneapolis, Minn.). […]"}},
  "note": "Where a SMILES comes first, the peptide text is derived from it. Where no end group is shown, it is not given here. The star is where a group is joined. Myristoyl = CCCCCCCCCCCCCC(=O)*",
  "data": [
    {"molecule": "CCCCCCCCCCCCCC(=O)NCC(=O)N[C@H](C(=O)N[C@@H](C)C(=O)N1CCC[C@H]1C(=O)N[C@@H](C)C(=O)N[C@@H](C)C(=O)N[C@@H](CCC(=O)O)C(=O)NCC(=O)N[C@@H](C)C(=O)NCC(=O)N[C@@H](C)C(=O)N[C@@H](CCC(=O)O)C(=O)N[C@H](C(=O)N[C@@H](CCCCN)C(=O)N[C@@H](CCCNC(=N)N)C(=O)N[C@@H](C)C(=O)N[C@@H](CO)C(=O)N[C@@H](C)C(=O)N[C@@H](CCC(=O)O)C(=O)N[C@@H](C)C(=O)N[C@@H](CCCCN)C(=O)N[C@@H](CCC(N)=O)C(=O)N[C@@H](C)C(=O)N[C@@H](Cc1ccccc1)C(=O)O)C(C)C)[C@@H](C)O", "note": "[RNS, reference compound] (Myristoyl-GTAPAAEGAGAEVKRASAEAKQAF-OH; C-terminus assumed)", "values": [
      {"measurement": "MPO secretion", "setting": "[1]; 10 or 100 μM peptide", "value": "no effect"},
      {"measurement": "% Inhibition MPO", "setting": "[2]", "value": 0, "unit": "%"},
      {"measurement": "effect on PMA-induced MPO release", "setting": "[2]; any of the time points or concentrations tested", "value": "did not affect"},
      {"measurement": "MPO secretion", "setting": "[3]; 10 or 100 μM peptide", "value": "no effect"}
    ]},
    {"molecule": "CCCCCCCCCCCCCC(=O)NCC(=O)N[C@@H](C)C(=O)N[C@@H](CCC(N)=O)C(=O)N[C@@H](Cc1ccccc1)C(=O)N[C@@H](CO)C(=O)N[C@@H](CCCCN)C(=O)N[C@H](C(=O)N[C@@H](C)C(=O)N[C@@H](C)C(=O)N[C@@H](CCCCN)C(=O)NCC(=O)N[C@@H](CCC(=O)O)C(=O)N[C@@H](C)C(=O)N[C@@H](C)C(=O)N[C@@H](C)C(=O)N[C@@H](CCC(=O)O)C(=O)N[C@@H](CCCNC(=N)N)C(=O)N1CCC[C@H]1C(=O)NCC(=O)N[C@@H](CCC(=O)O)C(=O)N[C@@H](C)C(=O)N[C@@H](C)C(=O)N[C@H](C(=O)N[C@@H](C)C(=O)O)C(C)C)[C@@H](C)O", "note": "[MANS] (Myristoyl-GAQFSKTAAKGEAAAERPGEAAVA-OH; C-terminus assumed)", "values": [
      {"measurement": "MPO secretion", "setting": "[1]; 10 μM peptide", "value": "slight decrease"},
      {"measurement": "MPO secretion", "setting": "[1]; 100 μM peptide", "value": "decreased secretion of MPO to control levels"},
      {"measurement": "MPO activity relative to control as 100%", "setting": "[2]; 50 μM", "value": "about 275%"},
      {"measurement": "reduction in MPO release versus the PMA control reference", "setting": "[2]; 50 μM, 1 hr", "value": "about 15%"},
      {"measurement": "MPO activity % of control", "setting": "[2]; 50 μM, 1 hr, PMA control reference about 340%", "value": "about 290%"},
      {"measurement": "reduction of MPO release versus the PMA control reference", "setting": "[2]; 50 μM, 2 hours", "value": "approximately 30%"},
      {"measurement": "MPO activity % of control", "setting": "[2]; 50 μM, 2 hours, PMA control reference about 540%", "value": "about 375%"},
      {"measurement": "reduction of MPO release versus the PMA control reference", "setting": "[2]; 50 μM, 3 hours", "value": "approximately 33%"},
      {"measurement": "MPO activity % of control", "setting": "[2]; 50 μM, 3 hours, PMA control reference about 560%", "value": "about 375%"},
      {"measurement": "% Inhibition MPO", "setting": "[2]", "value": 31.2, "unit": "%"},
      {"measurement": "MPO activity relative to control as 100%", "setting": "[2]; 100 μM", "value": "about 305%"},
      {"measurement": "reduction in MPO release versus the PMA control reference", "setting": "[2]; 100 μM, 1 hr", "value": "about 25%"},
      {"measurement": "MPO activity % of control", "setting": "[2]; 100 μM, 1 hr, PMA control reference about 340%", "value": "about 260%"},
      {"measurement": "reduction of MPO release versus the PMA control reference", "setting": "[2]; 100 μM, 2 hours", "value": "approximately 45%"},
      {"measurement": "MPO activity % of control", "setting": "[2]; 100 μM, 2 hours, PMA control reference about 540%", "value": "about 295%"},
      {"measurement": "reduction of MPO release versus the PMA control reference", "setting": "[2]; 100 μM, 3 hours", "value": "approximately 40%"},
      {"measurement": "MPO activity % of control", "setting": "[2]; 100 μM, 3 hours, PMA control reference about 560%", "value": "about 320%"},
      {"measurement": "effect on PMA-induced MPO release", "setting": "[2]; 50 and 100 μM, 30 min", "value": "no detected effect"},
      {"measurement": "MPO secretion", "setting": "[3]; 10 μM peptide", "value": "slight decrease"},
      {"measurement": "MPO secretion", "setting": "[3]; 100 (unit not given) peptide", "value": "decreased secretion of MPO to control levels"}
    ]},
    {"molecule": "Ac-GAQFSKTAAK [Ac-GAQFSKTAAK]", "values": [
      {"measurement": "% Inhibition MPO", "setting": "[2]", "value": 25.3, "unit": "%"}
    ]},
    {"molecule": "CCCCCCCCCCCCCC(=O)O[C@@H]1[C@@H](C)[C@@]2(O)[C@@H](C=C(CO)C[C@]3(O)C(=O)C(C)=C[C@@H]23)[C@@H]2C(C)(C)[C@]12OC(C)=O", "note": "[PMA, phorbol 12-myristate 13-acetate]", "values": [
      {"measurement": "MPO secretion from LPS-stimulated human neutrophils", "setting": "[1]; FIG. 8, PMA alone, enhanced concentration-dependently by co-stimulation with 8-Br-cGMP", "value": "small increase"},
      {"measurement": "increase of human neutrophil MPO release versus control level", "setting": "[2]; 30 min", "value": "approximately threefold"},
      {"measurement": "increase of human neutrophil MPO release versus control level", "setting": "[2]; after 3 hrs", "value": "5-6 fold"},
      {"measurement": "MPO secretion from LPS-stimulated canine neutrophils", "setting": "[3]; FIG. 10, PMA alone, enhanced concentration-dependently by co-stimulation with 8-Br-cGMP", "value": "small increase"}
    ]}
  ]
}
